SMILES strings stand for the structures. Structures can show the parent of a compound that is named as a salt. Square brackets hold non-standard residues; d marks the D form. Peptide text beside a SMILES is read from it. pGlu = O=C1CC[C@@H](C(=O)O)N1

The data set can be described thus: Solubility analysis in PBS (Analysis Method B). The conditions noted are these: pH 7.4. The data set is classed as physicochemical. As for the experimental part: The solubility of compounds of the invention was tested as described in the general methods. Solubility was then graded according to a rating between 1 to 5, where 1 is most soluble and 5 is least soluble.
The compound `CCNC(=O)[C@@H]1CCCN1C(=O)[C@H](CCCNC(=N)N)NC(=O)[C@H](CC(C)C)NC(=O)[C@@H](CC(C)C)NC(=O)[C@H](Cc1ccc(O)cc1)NC(=O)[C@H](CO)NC(=O)[C@H](Cc1c[nH]c2ccccc12)NC(=O)[C@H](Cc1c[nH]cn1)NC(=O)[C@@H]1CCC(=O)N1` [Leuprorelin acetate, leuprorelin, reference compound] yielded a Solubility grading of 2.

`CCNC(=O)[C@@H]1CCCN1C(=O)[C@H](CCCNC(=N)N)NC(=O)[C@H](CC(C)C)NC(=O)[C@@H](Cc1cn(Cc2ccccc2)cn1)NC(=O)[C@H](Cc1ccc(O)cc1)NC(=O)[C@H](CO)NC(=O)[C@H](Cc1c[nH]c2ccccc12)NC(=O)[C@H](Cc1cnc[nH]1)NC(=O)[C@@H]1CCC(=O)N1` [Histrelin acetate, histrelin, reference compound] displayed a Solubility grading of 4.

On to `CCNC(=O)[C@@H]1CCCN1C(=O)[C@H](CCCNC(=N)N)NC(=O)[C@H](CC(C)C)NC(=O)[C@@H](CC(C)C)NC(=O)[C@H](Cc1ccc(O)cc1)NC(=O)[C@H](CO)NC(=O)[C@H](Cc1c[nH]c2ccccc12)NC(=O)[C@H](Cc1c[nH]cn1)NC(=O)[C@@H]1CCC(=O)N1` [Leuprorelin TFA, leuprorelin, reference compound], for which the Solubility grading came to 1.

Take `CC(C)C[C@H](NC(=O)[C@@H](Cc1c[nH]c2ccccc12)NC(=O)[C@H](Cc1c[nH]cn1)NC(=O)[C@H](CO)NC(=O)[C@H](Cc1c[nH]c2ccccc12)NC(=O)[C@H](Cc1c[nH]cn1)NC(=O)[C@@H]1CCC(=O)N1)C(=O)N[C@@H](Cc1ccc(O)cc1)C(=O)N1CCC[C@H]1C(=O)NCC(N)=O` [Compound 16, pGlu-His-Trp-Ser-His-D-Trp-Leu-Tyr-Pro-Gly-amide] ([pGlu]HWSH[dW]LYPG-NH2): the Solubility grading is 2.

Compound `CCNC(=O)[C@@H]1CCCN1C(=O)[C@H](CCCNC(=N)N)NC(=O)[C@H](CC(C)C)NC(=O)[C@@H](Cc1cn(Cc2ccccc2)cn1)NC(=O)[C@H](Cc1ccc(O)cc1)NC(=O)[C@H](CO)NC(=O)[C@H](Cc1c[nH]c2ccccc12)NC(=O)[C@H](Cc1cnc[nH]1)NC(=O)[C@@H]1CCC(=O)N1` [Histrelin TFA, histrelin, reference compound] gave a Solubility grading of 2.

In turn, `CC(C)C[C@H](NC(=O)[C@@H](Cc1ccc2ccccc2c1)NC(=O)[C@H](Cc1ccc(O)cc1)NC(=O)[C@H](CO)NC(=O)[C@H](Cc1c[nH]c2ccccc12)NC(=O)[C@H](Cc1c[nH]cn1)NC(=O)[C@@H]1CCC(=O)N1)C(=O)N[C@@H](CCCNC(=N)N)C(=O)N1CCC[C@H]1C(=O)NCC(N)=O` [Naferelin TFA, nafarelin, reference compound] showed a Solubility grading of 1.

With `CC(C)C[C@H](NC(=O)[C@@H](Cc1c[nH]c2ccccc12)NC(=O)[C@H](Cc1ccc(O)cc1)NC(=O)[C@H](CO)NC(=O)[C@H](Cc1c[nH]c2ccccc12)NC(=O)[C@H](Cc1c[nH]cn1)NC(=O)[C@@H]1CCC(=O)N1)C(=O)N[C@@H](Cc1ccc(O)cc1)C(=O)N1CCC[C@H]1C(=O)NCC(N)=O` [Compound 14, pGlu-His-Trp-Ser-Tyr-D-Trp-Leu-Tyr-Pro-Gly-amide] ([pGlu]HWSY[dW]LYPG-NH2), the Solubility grading is on record as 4.

For the compound `N=C(N)NCCC[C@H](NC(=O)[C@H](Cc1c[nH]c2ccccc12)NC(=O)[C@@H](Cc1c[nH]c2ccccc12)NC(=O)[C@H](Cc1c[nH]cn1)NC(=O)[C@H](CO)NC(=O)[C@H](Cc1c[nH]c2ccccc12)NC(=O)[C@H](Cc1c[nH]cn1)NC(=O)[C@@H]1CCC(=O)N1)C(=O)N1CCC[C@H]1C(=O)NCC(N)=O` [Compound 20, pGlu-His-Trp-Ser-His-D-Trp-Trp-Arg-Pro-NHEt], the Solubility grading amounted to 3.

With `CC(C)C[C@H](NC(=O)[C@@H](Cc1ccc2ccccc2c1)NC(=O)[C@H](Cc1ccc(O)cc1)NC(=O)[C@H](CO)NC(=O)[C@H](Cc1c[nH]c2ccccc12)NC(=O)[C@H](Cc1c[nH]cn1)NC(=O)[C@@H]1CCC(=O)N1)C(=O)N[C@@H](CCCNC(=N)N)C(=O)N1CCC[C@H]1C(=O)NCC(N)=O` [Naferelin acetate, nafarelin, reference compound], the Solubility grading worked out at 2.

The values are drawn from patent US11564969B2, “Immunorhelin compounds for intracellular infections” (ISR IMMUNE SYSTEM REGULATION HOLDING AB (PUBL), priority 2017, dated 2023).
